{"source": "paper PMC5836727", "about": "(ACS chemical biology, 2017)", "key": {"firefly luciferase [1]": {"molecular_target": "T1, firefly luciferase (Photinus pyralis, UniProt P08659)", "T1 sequence (P08659 whole entry)": "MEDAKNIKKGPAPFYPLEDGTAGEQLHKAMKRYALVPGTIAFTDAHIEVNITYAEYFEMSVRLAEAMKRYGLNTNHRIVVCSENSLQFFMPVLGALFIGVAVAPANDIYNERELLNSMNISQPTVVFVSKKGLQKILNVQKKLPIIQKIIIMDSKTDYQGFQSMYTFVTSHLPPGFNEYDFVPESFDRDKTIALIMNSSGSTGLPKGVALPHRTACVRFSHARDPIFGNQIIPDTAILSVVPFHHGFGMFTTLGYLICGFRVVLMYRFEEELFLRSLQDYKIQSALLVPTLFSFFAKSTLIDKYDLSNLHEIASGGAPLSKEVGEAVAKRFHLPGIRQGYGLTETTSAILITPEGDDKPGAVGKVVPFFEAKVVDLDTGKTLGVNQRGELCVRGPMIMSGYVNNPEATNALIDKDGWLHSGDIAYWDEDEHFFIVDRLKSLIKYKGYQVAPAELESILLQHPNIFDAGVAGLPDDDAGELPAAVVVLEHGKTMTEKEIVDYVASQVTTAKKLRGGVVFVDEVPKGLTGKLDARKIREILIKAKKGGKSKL", "test": "bioluminescence of transfected live CHO cells", "assay_type": "cell-based", "conditions": "100 uM in HBSS"}, "CG6178": {"molecular_target": "T2, CG6178 (Drosophila melanogaster, UniProt Q9VCC6)", "T2 sequence (Q9VCC6 1-544)": "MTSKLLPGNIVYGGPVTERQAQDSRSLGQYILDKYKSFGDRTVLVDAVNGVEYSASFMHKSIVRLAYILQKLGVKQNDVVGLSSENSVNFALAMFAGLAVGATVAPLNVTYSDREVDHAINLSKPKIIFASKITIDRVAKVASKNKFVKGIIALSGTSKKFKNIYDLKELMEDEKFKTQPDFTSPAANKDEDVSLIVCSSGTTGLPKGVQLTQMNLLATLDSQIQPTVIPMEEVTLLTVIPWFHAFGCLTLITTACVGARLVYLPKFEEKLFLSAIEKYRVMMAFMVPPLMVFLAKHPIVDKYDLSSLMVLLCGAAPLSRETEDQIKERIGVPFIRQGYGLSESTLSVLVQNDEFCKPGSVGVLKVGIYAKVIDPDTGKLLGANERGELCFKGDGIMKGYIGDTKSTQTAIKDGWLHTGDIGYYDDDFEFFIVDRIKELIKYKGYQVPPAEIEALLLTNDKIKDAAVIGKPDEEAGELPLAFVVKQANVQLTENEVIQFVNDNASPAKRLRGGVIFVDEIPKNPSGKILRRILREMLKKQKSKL", "test": "bioluminescence", "assay_type": "biochemical", "conditions": "ATP, MgSO4, pH 7.4; 20 nM enzyme, 250 uM luciferin"}, "firefly luciferase [2]": {"molecular_target": "T1, firefly luciferase", "test": "bioluminescence burst kinetics after rapid injection", "assay_type": "biochemical", "conditions": "100 nM enzyme, 100 uM substrate"}}}
{"smiles": "O=C(O)[C@H]1CSC(/C=C/c2ccc(N3CCCC3)cc2)=N1", "note": "[compound 5, (S,E)-2-(4-(pyrrolidin-1-yl)styryl)-4,5-dihydrothiazole-4-carboxylic acid]", "values": [{"measurement": "bioluminescence of transfected live CHO cells", "setting": "firefly luciferase [1]", "result": "all three are substrates for firefly luciferase and AbLL"}]}
{"smiles": "CN1CCc2cc3nc(C4=N[C@@H](C(=O)O)CS4)sc3cc21", "note": "[CycLuc2]", "values": [{"measurement": "bioluminescence (photon flux, IVIS-100; burst kinetics)", "setting": "CG6178", "result": "we found that CG6178 is capable of luciferase activity when treated with the synthetic luciferin CycLuc2"}]}
{"smiles": "O=C(O)[C@H]1CSC(c2nc3ccc(O)cc3s2)=N1", "note": "[D-luciferin]", "values": [{"measurement": "bioluminescence burst kinetics after rapid injection", "setting": "firefly luciferase [2]", "result": "more pronounced with the tighter-binding synthetic luciferins than with D-luciferin"}]}
